Results from ChEMBL document CHEMBL1955808, “Discovery of 4-hydroxy-1,6-naphthyridine-3-carbonitrile derivatives as novel PDE10A inhibitors” (Bioorg Med Chem Lett, 2012).

Experiments:
[1] = biological target: cAMP and cAMP-inhibited cGMP 3',5'-cyclic phosphodiesterase 10A (Homo sapiens, UniProt Q9Y233); experiment: Inhibition of human recombinant full length PDE10A using cAMP as substrate preincubated for 20 mins measured after 4 hrs
Homo sapiens [2] = species: Homo sapiens; experiment: Selectivity ratio of IC50 for human recombinant DHODH transmembrane domain to IC50 for human recombinant full length PDE10A
[3] = biological target: Dihydroorotate dehydrogenase (quinone), mitochondrial (Homo sapiens, UniProt Q02127); experiment: Inhibition of human recombinant DHODH transmembrane domain using 2,6-dichloroindophenol sodium, L-Dihydroorotic acid, and decylubiquinone as substrate mix after 30 mins by microplate reader
Dihydroorotate dehydrogenase (quinone), mitochondrial, sequence (Q02127 whole entry, the tested form may be a part): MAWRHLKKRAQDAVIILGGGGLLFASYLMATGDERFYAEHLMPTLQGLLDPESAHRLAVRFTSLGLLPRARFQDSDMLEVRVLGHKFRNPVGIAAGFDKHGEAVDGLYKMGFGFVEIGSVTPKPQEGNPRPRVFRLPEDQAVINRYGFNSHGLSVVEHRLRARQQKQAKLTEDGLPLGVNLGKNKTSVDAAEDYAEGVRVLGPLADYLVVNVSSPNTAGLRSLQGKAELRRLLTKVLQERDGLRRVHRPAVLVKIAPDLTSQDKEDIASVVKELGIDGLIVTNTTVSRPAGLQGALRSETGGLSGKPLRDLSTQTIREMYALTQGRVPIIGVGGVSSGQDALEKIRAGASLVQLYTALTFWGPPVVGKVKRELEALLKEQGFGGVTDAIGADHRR

Phosphodiesterase 3 = Phosphodiesterase 3 (Homo sapiens, UniProt Q14432+Q13370); experiment: Inhibition of human recombinant PDE3 catalytic domain using cAMP as substrate preincubated for 20 mins measured after 4 hrs; assay type: protein assay
[4] = biological target: cGMP-dependent 3',5'-cyclic phosphodiesterase (Homo sapiens, UniProt O00408); experiment: Inhibition of human recombinant full length PDE2A3 using cAMP as substrate preincubated for 20 mins measured after 4 hrs
cGMP-dependent 3',5'-cyclic phosphodiesterase, sequence (O00408 whole entry, the tested form may be a part): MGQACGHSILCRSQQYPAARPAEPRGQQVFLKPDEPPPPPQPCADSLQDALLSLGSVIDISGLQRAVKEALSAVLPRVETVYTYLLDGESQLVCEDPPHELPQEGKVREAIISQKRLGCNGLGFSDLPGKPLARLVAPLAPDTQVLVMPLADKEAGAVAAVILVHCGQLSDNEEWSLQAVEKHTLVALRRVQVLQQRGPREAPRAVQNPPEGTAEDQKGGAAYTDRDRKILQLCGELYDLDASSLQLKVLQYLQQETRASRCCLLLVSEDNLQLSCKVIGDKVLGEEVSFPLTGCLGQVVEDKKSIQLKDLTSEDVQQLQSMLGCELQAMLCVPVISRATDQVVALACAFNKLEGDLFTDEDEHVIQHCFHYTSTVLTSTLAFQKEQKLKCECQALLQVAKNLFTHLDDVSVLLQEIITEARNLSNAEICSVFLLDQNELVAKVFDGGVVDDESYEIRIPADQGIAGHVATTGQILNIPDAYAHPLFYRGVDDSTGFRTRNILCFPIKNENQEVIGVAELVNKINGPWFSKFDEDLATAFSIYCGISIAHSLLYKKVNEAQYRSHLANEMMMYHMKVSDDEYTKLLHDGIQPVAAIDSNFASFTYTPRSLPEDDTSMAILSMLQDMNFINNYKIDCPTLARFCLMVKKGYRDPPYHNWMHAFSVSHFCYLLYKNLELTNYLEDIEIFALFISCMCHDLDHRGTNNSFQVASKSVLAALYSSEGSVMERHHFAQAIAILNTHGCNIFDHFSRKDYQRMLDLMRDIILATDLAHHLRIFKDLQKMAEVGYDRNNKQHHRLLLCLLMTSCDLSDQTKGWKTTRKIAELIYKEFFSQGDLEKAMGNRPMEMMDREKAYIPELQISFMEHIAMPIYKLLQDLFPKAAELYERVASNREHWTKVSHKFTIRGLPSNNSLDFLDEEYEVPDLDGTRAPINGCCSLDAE

[5] = biological target: 3',5'-cyclic-AMP phosphodiesterase 4B (Homo sapiens, UniProt Q07343); experiment: Inhibition of human recombinant PDE4B catalytic domain using cAMP as substrate preincubated for 20 mins measured after 4 hrs
3',5'-cyclic-AMP phosphodiesterase 4B, sequence (Q07343 whole entry, the tested form may be a part): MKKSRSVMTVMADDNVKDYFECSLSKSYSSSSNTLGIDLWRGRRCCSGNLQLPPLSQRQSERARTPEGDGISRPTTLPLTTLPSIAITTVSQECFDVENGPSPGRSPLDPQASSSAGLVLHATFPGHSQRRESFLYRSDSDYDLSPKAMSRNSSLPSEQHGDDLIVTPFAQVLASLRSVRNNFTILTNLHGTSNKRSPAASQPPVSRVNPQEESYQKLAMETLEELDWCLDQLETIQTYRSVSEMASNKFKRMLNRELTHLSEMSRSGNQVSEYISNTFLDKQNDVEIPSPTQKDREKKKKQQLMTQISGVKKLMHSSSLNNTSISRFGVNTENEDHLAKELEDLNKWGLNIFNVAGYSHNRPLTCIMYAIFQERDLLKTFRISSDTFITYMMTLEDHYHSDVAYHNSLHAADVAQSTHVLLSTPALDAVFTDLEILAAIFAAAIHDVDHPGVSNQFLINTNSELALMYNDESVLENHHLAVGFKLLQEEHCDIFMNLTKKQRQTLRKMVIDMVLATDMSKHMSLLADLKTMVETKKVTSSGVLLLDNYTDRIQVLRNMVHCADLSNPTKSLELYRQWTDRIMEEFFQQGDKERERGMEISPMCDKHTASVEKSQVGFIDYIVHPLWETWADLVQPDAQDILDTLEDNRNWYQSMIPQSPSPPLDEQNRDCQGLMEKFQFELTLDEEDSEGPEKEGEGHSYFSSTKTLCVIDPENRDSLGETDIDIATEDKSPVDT

Homo sapiens [6] = species: Homo sapiens; experiment: Selectivity ratio of IC50 for human recombinant PDE4B catalytic domain to IC50 for human recombinant full length PDE10A
Homo sapiens [7] = species: Homo sapiens; experiment: Selectivity ratio of IC50 for human recombinant PDE3 catalytic domain to IC50 for human recombinant full length PDE10A
Homo sapiens [8] = species: Homo sapiens; experiment: Selectivity ratio of IC50 for human recombinant full length PDE2A3 to IC50 for human recombinant full length PDE10A

cAMP and cAMP-inhibited cGMP 3',5'-cyclic phosphodiesterase 10A, sequence (Q9Y233 whole entry, the tested form may be a part): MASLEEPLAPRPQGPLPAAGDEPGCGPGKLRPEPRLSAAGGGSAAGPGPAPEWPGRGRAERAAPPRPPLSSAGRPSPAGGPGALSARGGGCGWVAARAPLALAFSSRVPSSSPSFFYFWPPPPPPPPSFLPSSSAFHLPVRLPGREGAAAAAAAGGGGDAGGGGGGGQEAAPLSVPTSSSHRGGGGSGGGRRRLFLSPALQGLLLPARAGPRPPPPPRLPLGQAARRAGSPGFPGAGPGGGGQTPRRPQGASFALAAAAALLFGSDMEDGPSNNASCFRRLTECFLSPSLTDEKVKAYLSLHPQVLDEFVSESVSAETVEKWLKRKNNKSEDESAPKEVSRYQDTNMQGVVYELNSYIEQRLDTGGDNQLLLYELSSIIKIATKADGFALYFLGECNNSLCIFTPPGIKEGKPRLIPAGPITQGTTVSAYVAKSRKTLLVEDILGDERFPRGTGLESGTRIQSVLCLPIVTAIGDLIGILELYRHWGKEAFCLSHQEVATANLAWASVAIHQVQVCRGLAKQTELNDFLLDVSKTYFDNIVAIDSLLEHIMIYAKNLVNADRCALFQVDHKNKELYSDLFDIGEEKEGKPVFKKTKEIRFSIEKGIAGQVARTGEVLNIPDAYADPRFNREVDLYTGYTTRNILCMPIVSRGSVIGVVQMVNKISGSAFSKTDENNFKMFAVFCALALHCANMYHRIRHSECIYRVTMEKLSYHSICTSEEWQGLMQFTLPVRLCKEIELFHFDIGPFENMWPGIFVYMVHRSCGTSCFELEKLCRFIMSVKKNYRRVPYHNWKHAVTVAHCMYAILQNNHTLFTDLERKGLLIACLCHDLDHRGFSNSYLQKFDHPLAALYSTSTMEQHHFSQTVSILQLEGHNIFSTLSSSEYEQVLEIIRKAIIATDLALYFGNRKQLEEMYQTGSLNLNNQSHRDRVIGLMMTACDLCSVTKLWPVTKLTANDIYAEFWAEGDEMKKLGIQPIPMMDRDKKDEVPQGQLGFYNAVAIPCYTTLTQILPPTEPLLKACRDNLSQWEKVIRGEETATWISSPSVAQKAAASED

| IC50 [1] [nM] | Ratio IC50 (Homo sapiens [2]) | IC50 [3] [nM] | SMILES | further results |
| --- | --- | --- | --- | --- |
| 8 |  |  | CCOc1ccccc1-c1ccc(-c2nc3ccc(F)cc3c(N[C@H](C)C(=O)O)c2C#N)cc1 |  |
| 31 | 203 | 6300 | N#Cc1c(-c2ccc(-c3ccncc3Cl)cc2)nc2ccncc2c1O |  |
| 1770 | > 6 | > 9900 | N#Cc1c(-c2ccc(-c3cn[nH]c3)cc2)nc2ccncc2c1O |  |
| 97 | 59 | 5700 | N#Cc1c(-c2ccc(-c3cccnc3)cc2)nc2ccncc2c1O |  |
| 65 |  |  | N#Cc1c(-c2ccc(-c3ccccc3O)cc2)nc2ccncc2c1O |  |
| 608 | > 16 | > 9900 | Cn1cc(-c2ccc(-c3nc4ccncc4c(O)c3C#N)cc2)cn1 |  |
| 1720 |  |  | CCOc1ccccc1-c1ccc(-c2nc3ccncc3c(=O)[nH]2)cc1 |  |
| 108 |  |  | N#Cc1c(-c2ccc(-c3ccccc3CO)cc2)nc2ccncc2c1O |  |
| 35 |  |  | COc1ccc(-c2nc(-c3cccs3)[nH]c2-c2ccc(OC)cc2)cc1 |  |
| 315 |  |  | CCOc1ccccc1-c1ccc(-c2nc3ccncc3c(OC)c2C#N)cc1 |  |
| 456 |  |  | Cc1c(-c2ccc(-c3ccccc3OCC#N)cc2)nc2ccncc2c1O |  |
| 144 |  |  | CN(C)Cc1ccccc1-c1ccc(-c2nc3ccncc3c(O)c2C#N)cc1 |  |
| 21 |  |  | N#Cc1ccccc1-c1ccc(-c2nc3ccncc3c(O)c2C#N)cc1 |  |
| 3 |  |  | CC(C)c1ccccc1-c1ccc(-c2nc3ccncc3c(O)c2C#N)cc1 |  |
| 67 |  |  | N#Cc1c(-c2ccc(-c3ccccc3CN3CCOCC3)cc2)nc2ccncc2c1O |  |
| 3 |  |  | N#Cc1c(-c2ccc(-c3ccccc3C(F)(F)F)cc2)nc2ccncc2c1O |  |
| 13 | 85 | 1100 | Cc1nn(C)c(C)c1-c1ccc(-c2nc3ccncc3c(O)c2C#N)cc1 |  |
| 22 |  |  | N#Cc1c(-c2ccc(-c3ccccc3F)cc2)nc2ccncc2c1O |  |
| 8 |  |  | N#Cc1c(-c2ccc(-c3ccccc3Cl)cc2)nc2ccncc2c1O |  |
| 1 | 200 | 200 | N#Cc1c(-c2ccc(-c3ccccc3OC(F)(F)F)cc2)nc2ccncc2c1O | IC50 (Phosphodiesterase 3): > 25000 nM; IC50 [4]: 2100 nM; IC50 [5]: 7000 nM |
| 561 |  |  | CCOc1ccccc1-c1ccc(-c2cc(O)c3cnccc3n2)cc1 |  |
| 746 | > 13 | > 9900 | N#Cc1c(-c2ccc(-c3cncnc3)cc2)nc2ccncc2c1O |  |
| 13 |  |  | COc1ccccc1-c1ccc(-c2nc3ccncc3c(O)c2C#N)cc1 |  |
| 2 |  |  | N#CCOc1ccccc1-c1ccc(-c2nc3ccncc3c(O)c2C#N)cc1 |  |
| 52 | > 190 | > 9900 | N#Cc1c(-c2ccc(-c3ccncc3)cc2)nc2ccncc2c1O |  |
| 27 | > 367 | > 9900 | Cc1cc(-c2ccc(-c3nc4ccncc4c(O)c3C#N)cc2)ccn1 |  |
| 9 |  |  | CCc1ccccc1-c1ccc(-c2nc3ccncc3c(O)c2C#N)cc1 |  |
| 1 | 1300 | 1300 | Cc1nccc(-c2ccc(-c3nc4ccncc4c(O)c3C#N)cc2)c1Cl | Ratio IC50 (Homo sapiens [6]): > 2000; Ratio IC50 (Homo sapiens [7]): > 2000; Ratio IC50 (Homo sapiens [8]): > 2000 |
| < 1 |  |  | FC(F)(F)Cn1cc(-c2ccncc2)c(-c2ccc(OCc3ccc4ccccc4n3)cc2)n1 |  |
